Measured values reported in ChEMBL document CHEMBL1201862, “PubChem BioAssay data set” (2004).
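Results reflect a 48-hour exposure of cells in 96-well plates to compound at five concentrations. GI50 is the concentration that inhibits growth by half.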 The source made the active and inactive calls. Rule as the data show it: active = GI50 up to about 1.1 µM and inactive = higher.

How the values were obtained:
Assay in all cases: NCI tumour cell line growth inhibition, 48 h
CCRF-CEM = tested on: CCRF-CEM
U-251 = tested on: U-251
SF-295 = tested on: SF-295
IGROV-1 = tested on: IGROV-1
NCI-H23 = tested on: NCI-H23
ACHN = tested on: ACHN
EKVX = tested on: EKVX
MDA-MB-435 = tested on: MDA-MB-435
SK-MEL-5 = tested on: SK-MEL-5
NCI/ADR-RES = tested on: NCI/ADR-RES
HCT-116 = tested on: HCT-116
TK-10 = tested on: TK-10
PC-3 = tested on: PC-3
MOLT-4 = tested on: MOLT-4
SK-MEL-28 = tested on: SK-MEL-28
LOX IMVI = tested on: LOX IMVI
HCC 2998 = tested on: HCC 2998
MDA-MB-231 = tested on: MDA-MB-231
M14 = tested on: M14
OVCAR-5 = tested on: OVCAR-5

Measured: GI50

ON=C(CC(O)(C(F)(F)Cl)C(F)(F)Cl)CC(O)(C(F)(F)Cl)C(F)(F)Cl
inactive: CCRF-CEM 5.56 µM | U-251 3.46 µM | SF-295 7.89 µM | IGROV-1 6.37 µM | NCI-H23 2.56 µM | ACHN 3.66 µM | EKVX 5.04 µM | MDA-MB-435 4.07 µM | SK-MEL-5 4.2 µM | NCI/ADR-RES 4.69 µM | HCT-116 3.29 µM | TK-10 7.66 µM | PC-3 3.33 µM | MOLT-4 4.83 µM | SK-MEL-28 6.27 µM | LOX IMVI 5.26 µM | HCC 2998 4.5 µM

O=c1[nH]c2cc([N+](=O)[O-])c(N(CCO)CCO)c([N+](=O)[O-])c2[nH]1
inactive: CCRF-CEM 44.7 µM | U-251 44.1 µM | SF-295 28.4 µM | IGROV-1 65.5 µM | NCI-H23 30.5 µM | ACHN 43.7 µM | EKVX 12.9 µM | MDA-MB-231 52.6 µM | MDA-MB-435 28.7 µM | SK-MEL-5 17.5 µM | NCI/ADR-RES 31.8 µM | HCT-116 27.7 µM | M14 28.6 µM | PC-3 44.4 µM | MOLT-4 24.5 µM | SK-MEL-28 29.4 µM | OVCAR-5 31.9 µM | LOX IMVI 37.5 µM

Cc1cc2ccc(N)nc2nc1O
inactive: U-251 99.1 µM | SF-295 > 100 µM | IGROV-1 > 100 µM | NCI-H23 > 100 µM | ACHN 52 µM | EKVX > 100 µM | MDA-MB-231 > 100 µM | MDA-MB-435 > 100 µM | SK-MEL-5 > 100 µM | NCI/ADR-RES > 100 µM | HCT-116 > 100 µM | M14 > 100 µM | TK-10 > 100 µM | PC-3 > 100 µM | OVCAR-5 > 100 µM

N#CCCN(CCC#N)c1ccc(/C=C2\N=C(c3ccccc3)N(c3ccccn3)C2=O)cc1
inactive: CCRF-CEM > 100 µM | U-251 > 100 µM | SF-295 > 100 µM | IGROV-1 > 100 µM | ACHN > 100 µM | EKVX > 100 µM | MDA-MB-231 > 100 µM | MDA-MB-435 > 100 µM | SK-MEL-5 > 100 µM | NCI/ADR-RES > 100 µM | HCT-116 > 100 µM | M14 > 100 µM | TK-10 > 100 µM | PC-3 > 100 µM | MOLT-4 > 100 µM | SK-MEL-28 > 100 µM | OVCAR-5 > 100 µM | LOX IMVI > 100 µM

N#C/C(C(=O)Nc1ccccc1)=C(/N)N1CCOCC1
inactive: CCRF-CEM > 100 µM | U-251 > 100 µM | SF-295 > 100 µM | IGROV-1 > 100 µM | NCI-H23 > 100 µM | ACHN > 100 µM | EKVX > 100 µM | MDA-MB-435 > 100 µM | SK-MEL-5 > 100 µM | NCI/ADR-RES > 100 µM | HCT-116 > 100 µM | M14 > 100 µM | PC-3 > 100 µM | MOLT-4 > 100 µM | SK-MEL-28 > 100 µM | OVCAR-5 > 100 µM | LOX IMVI > 100 µM | HCC 2998 > 100 µM

Nc1ccccc1C(=O)CC1OC(=O)c2ccccc21 (configuration not stated)
inactive: U-251 48.4 µM | SF-295 > 100 µM | IGROV-1 > 100 µM | ACHN > 100 µM | EKVX 34.9 µM | MDA-MB-231 > 100 µM | MDA-MB-435 57.4 µM | NCI/ADR-RES 60.1 µM | HCT-116 51.6 µM | M14 > 100 µM | TK-10 > 100 µM | PC-3 41.7 µM | MOLT-4 > 100 µM | SK-MEL-28 > 100 µM | OVCAR-5 > 100 µM | LOX IMVI 52.8 µM

O=C1/C(=C/c2ccccc2)CCCc2ccccc21
inactive: CCRF-CEM 15.7 µM | U-251 15.7 µM | SF-295 19 µM | IGROV-1 19.6 µM | NCI-H23 17.5 µM | ACHN 20.8 µM | EKVX 19.5 µM | MDA-MB-231 20.1 µM | MDA-MB-435 18.3 µM | NCI/ADR-RES 20 µM | HCT-116 16.8 µM | M14 20.1 µM | TK-10 19.8 µM | PC-3 18.1 µM | MOLT-4 18.5 µM | SK-MEL-28 17.4 µM | OVCAR-5 19.1 µM | LOX IMVI 18.4 µM

COc1ccc(/C=C/c2cc(O)cc(OC)c2)cc1
inactive: U-251 28.7 µM | SF-295 75.9 µM | IGROV-1 > 100 µM | NCI-H23 > 100 µM | ACHN 19.8 µM | EKVX 55.3 µM | MDA-MB-231 27.8 µM | MDA-MB-435 68.4 µM | SK-MEL-5 > 100 µM | NCI/ADR-RES > 100 µM | HCT-116 > 100 µM | M14 > 100 µM | TK-10 > 100 µM | PC-3 68.5 µM | MOLT-4 56.5 µM | SK-MEL-28 > 100 µM | OVCAR-5 > 100 µM
